This is an account of results in PubChem BioAssay (NCI).

Some test systems named below: HCC-2998 colon; SF-295 CNS; HCT-15 colon; RPMI-8226 leukemia; HOP-92 NSCLC; OVCAR-3 ovarian; RXF 393 renal; HT29 colon; SK-OV-3 ovarian; HL-60(TB) leukemia; SW-620 colon; LOX IMVI melanoma; SK-MEL-28 melanoma; TK-10 renal; OVCAR-8 ovarian; SK-MEL-2 melanoma; MDA-MB-435; NCI/ADR-RES ovarian; MDA-MB-231 breast.
Common to all, as to experiment: growth of human tumour cells (NCI), 48 h

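Dose response: 5 concentrations. Exposure: 48 h. Format: 96-well plates. Endpoint: linear interpolation; highest concentration if not reached. TGI is the concentration that stops growth completely.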 A value given as a limit tells only on which side of the number the result lay.

`OCCCNc1ccnc2cc(Cl)ccc12`: the TGI with HCC-2998 colon, with SF-295 CNS, in the test on HCT-15 colon, in the test with RPMI-8226 leukemia, with HOP-92 NSCLC and with OVCAR-3 ovarian was more than 100 µM throughout. In addition, the TGI in the test with RXF 393 renal, in the test with HT29 colon, in the test with SK-OV-3 ovarian, in the test with HL-60(TB) leukemia, in the test on SW-620 colon and in the test with LOX IMVI melanoma was more than 100 µM each time. Moreover, the TGI with SK-MEL-28 melanoma, with TK-10 renal, with OVCAR-8 ovarian and in the test on SK-MEL-2 melanoma was more than 100 µM in each case.
For `Cc1cc(C)n(-c2ccnc3cc(Cl)ccc23)n1`, the TGI with HCC-2998 colon, in the test with SF-295 CNS, with HCT-15 colon, in the test on RPMI-8226 leukemia, in the test on HOP-92 NSCLC and with OVCAR-3 ovarian was more than 100 µM each time. Further, the TGI in the test with RXF 393 renal, with HT29 colon, with SK-OV-3 ovarian, in the test on HL-60(TB) leukemia, in the test on SW-620 colon and in the test with LOX IMVI melanoma was more than 100 µM each time. The TGI with SK-MEL-28 melanoma, with TK-10 renal, in the test on OVCAR-8 ovarian and in the test with SK-MEL-2 melanoma was more than 100 µM in each case.
On to `O=C(c1nc2ccccc2[nH]c1=O)C(O)c1ccco1` (stereo not given), for which the TGI in the test with HCC-2998 colon, with SF-295 CNS, with HCT-15 colon, in the test on RPMI-8226 leukemia, with HOP-92 NSCLC and in the test on OVCAR-3 ovarian was more than 100 µM each time. The TGI with RXF 393 renal, in the test with HT29 colon, in the test with SK-OV-3 ovarian, in the test with HL-60(TB) leukemia, in the test on SW-620 colon and with LOX IMVI melanoma was more than 100 µM each time. Further, the TGI in the test with SK-MEL-28 melanoma, with TK-10 renal, in the test on OVCAR-8 ovarian and in the test on SK-MEL-2 melanoma was more than 100 µM each time.
As to `C/C=C1\CC2C(=O)CCC2C2c3ccccc3OC12` (stereo not given), the TGI in the test with SF-295 CNS, with HCT-15 colon, in the test with RPMI-8226 leukemia, in the test on HOP-92 NSCLC, with OVCAR-3 ovarian and in the test with RXF 393 renal was more than 100 µM each time. For the same compound, the TGI in the test with HT29 colon, with SK-OV-3 ovarian, in the test with MDA-MB-435, in the test on HL-60(TB) leukemia, with SW-620 colon and in the test with LOX IMVI melanoma was more than 100 µM each time. Besides, the TGI in the test on NCI/ADR-RES ovarian, in the test with MDA-MB-231 breast, with SK-MEL-28 melanoma, in the test with TK-10 renal, in the test on OVCAR-8 ovarian and with SK-MEL-2 melanoma was more than 100 µM in each case.
For the compound `C=C/C(C)=C\CC1[C@](C)(O)CC[C@H]2C(C)(C)C(O)CC[C@]12C` (stereo not given in full), the TGI in the test with SF-295 CNS, in the test on HCT-15 colon, in the test with RPMI-8226 leukemia, with HOP-92 NSCLC, with OVCAR-3 ovarian and in the test on RXF 393 renal was more than 100 µM each time. Further, the TGI with HT29 colon, in the test with MDA-MB-435, in the test on HL-60(TB) leukemia, in the test on SW-620 colon, in the test on LOX IMVI melanoma and in the test on NCI/ADR-RES ovarian was more than 100 µM each time. Besides, the TGI in the test with MDA-MB-231 breast, in the test with SK-MEL-28 melanoma, in the test with TK-10 renal, with OVCAR-8 ovarian and in the test with SK-MEL-2 melanoma was more than 100 µM throughout.
As to `CCCN(CCC)C(=S)N/N=C/c1ccccn1`, the TGI in the test on HCC-2998 colon came to 19.6 µM; in the test on SF-295 CNS it was 21.7 µM; with HCT-15 colon, 16.8 µM; in the test on RPMI-8226 leukemia, 0.566 µM; in the test on HOP-92 NSCLC it was 26.7 µM; in the test with RXF 393 renal it was 3.41 µM. Also, the TGI with HT29 colon was more than 37.4 µM; in the test on SK-OV-3 ovarian, 28.6 µM; in the test on MDA-MB-435 it was 18.8 µM; with HL-60(TB) leukemia it was 0.207 µM; in the test with SW-620 colon it was 28.6 µM; in the test on LOX IMVI melanoma, 13.4 µM. Besides, the TGI is less than 0.0354 µM in the test on NCI/ADR-RES ovarian; more than 63.9 µM with SK-MEL-28 melanoma; 15.1 µM with TK-10 renal; 11.9 µM in the test with OVCAR-8 ovarian; 14.9 µM in the test on SK-MEL-2 melanoma.
Regarding `CCOC(=O)C1(C(=O)OCC)C[C@@H](C)[C@@H](O)C1`, the TGI in the test with SF-295 CNS, in the test with HCT-15 colon, in the test on RPMI-8226 leukemia, with HOP-92 NSCLC, with OVCAR-3 ovarian and in the test with RXF 393 renal was more than 100 µM throughout. Besides, the TGI with HT29 colon, in the test on SK-OV-3 ovarian, in the test on MDA-MB-435, in the test on HL-60(TB) leukemia, in the test on SW-620 colon and in the test on LOX IMVI melanoma was more than 100 µM throughout. For the same compound, the TGI with NCI/ADR-RES ovarian, in the test on MDA-MB-231 breast, in the test on SK-MEL-28 melanoma, with TK-10 renal, in the test on OVCAR-8 ovarian and in the test with SK-MEL-2 melanoma was more than 100 µM throughout.
For `CC1(C)CC(=O)C2=C(C1)NC1=C(C2)C(=O)CC(C)(C)C1`, the TGI in the test with HCC-2998 colon, in the test on SF-295 CNS, in the test with HCT-15 colon, in the test with RPMI-8226 leukemia, with OVCAR-3 ovarian and with RXF 393 renal was more than 100 µM throughout. Besides, the TGI in the test on HT29 colon, in the test on SK-OV-3 ovarian, with MDA-MB-435, in the test on HL-60(TB) leukemia, in the test on SW-620 colon and in the test on LOX IMVI melanoma was more than 100 µM each time. The TGI with NCI/ADR-RES ovarian, in the test with MDA-MB-231 breast, in the test on SK-MEL-28 melanoma, with TK-10 renal and in the test on OVCAR-8 ovarian was more than 100 µM in each case.
